Experimental findings from PubChem BioAssay (NCI) are described below.

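Each compound was tested at five concentrations against cells in 96-well plates for 48 hours. Abbreviation: GI50, concentration required for 50% inhibition of growth. TGI: total growth inhibition.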

Test systems include SK-MEL-28 melanoma; CCRF-CEM leukemia; NCI-H226 lung; K-562 leukemia; HL-60(TB) leukemia; HT29 colon; NCI-H460 lung; CAKI-1 renal; A498 renal; HCC-2998 colon.
What all share (test): growth of human tumour cells (NCI), 48 h

With `COc1cc(C(=O)/C=C/c2c(C)n([O-])c3ccc(Cl)cc3[n+]2=O)cc(OC)c1OC`, the GI50 in the experiment with SK-MEL-28 melanoma is 10.8 µM; in the experiment on CCRF-CEM leukemia, 2.14 µM; with NCI-H226 lung, 32.6 µM; in the experiment on K-562 leukemia it was 3.09 µM; with HL-60(TB) leukemia, 5.76 µM; in the experiment with HT29 colon it was 3.94 µM. Moreover, the GI50 with NCI-H460 lung is 12.5 µM; in the experiment with CAKI-1 renal, 10.3 µM; in the experiment with A498 renal, 0.208 µM; in the experiment with HCC-2998 colon, 12.8 µM. Further, the TGI in the experiment with SK-MEL-28 melanoma was 52.9 µM; with CCRF-CEM leukemia, 18.3 µM; with NCI-H226 lung, above 100 µM; in the experiment on K-562 leukemia, above 100 µM; in the experiment on HL-60(TB) leukemia, 23.5 µM; in the experiment with HT29 colon, above 100 µM. The TGI with NCI-H460 lung was 36.6 µM; in the experiment on CAKI-1 renal, above 100 µM; in the experiment with A498 renal, 41 µM; in the experiment with HCC-2998 colon it was 38.7 µM.
For `COC(=O)C1C(=O)NC2(C)CC1c1ccccc1O2` (stereo not given), the TGI with SK-MEL-28 melanoma, in the experiment with CCRF-CEM leukemia, with NCI-H226 lung, in the experiment with K-562 leukemia, in the experiment on HL-60(TB) leukemia and in the experiment with HT29 colon was above 100 µM throughout. Further, the TGI in the experiment on NCI-H460 lung, with CAKI-1 renal, with A498 renal and in the experiment with HCC-2998 colon was above 100 µM each time.
